The target in one assay is T1, Full length Human HDAC8 (Homo sapiens, UniProt Q9BY41).
T1 construct: Full length Human HDAC8; HIS (N); host or cells: baculovirus expression system
T1 sequence (Q9BY41 1-377): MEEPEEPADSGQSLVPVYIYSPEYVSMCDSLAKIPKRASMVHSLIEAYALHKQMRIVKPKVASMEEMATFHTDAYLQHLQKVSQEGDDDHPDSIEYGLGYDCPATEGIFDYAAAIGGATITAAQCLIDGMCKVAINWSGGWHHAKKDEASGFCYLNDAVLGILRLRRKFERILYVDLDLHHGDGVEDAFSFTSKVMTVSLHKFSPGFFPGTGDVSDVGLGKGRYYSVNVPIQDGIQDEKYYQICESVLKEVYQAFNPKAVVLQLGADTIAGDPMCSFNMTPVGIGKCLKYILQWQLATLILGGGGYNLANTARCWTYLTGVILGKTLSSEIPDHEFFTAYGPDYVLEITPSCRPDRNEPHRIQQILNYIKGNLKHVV
Kind of assay: Caliper endpoint assay for HDAC enzymatic activity (HDAC8). In kind it is biochemical. The conditions noted are these: in vitro enzymatic, 30 min pre-incubation, 1 μM substrate peptide.

The target of a further assay is T2, Full length Human HDAC6 (Homo sapiens, UniProt Q9UBN7).
T2 construct: Full length Human HDAC6; FLAG (C); host or cells: baculovirus expression system
T2 sequence (Q9UBN7 1-1215): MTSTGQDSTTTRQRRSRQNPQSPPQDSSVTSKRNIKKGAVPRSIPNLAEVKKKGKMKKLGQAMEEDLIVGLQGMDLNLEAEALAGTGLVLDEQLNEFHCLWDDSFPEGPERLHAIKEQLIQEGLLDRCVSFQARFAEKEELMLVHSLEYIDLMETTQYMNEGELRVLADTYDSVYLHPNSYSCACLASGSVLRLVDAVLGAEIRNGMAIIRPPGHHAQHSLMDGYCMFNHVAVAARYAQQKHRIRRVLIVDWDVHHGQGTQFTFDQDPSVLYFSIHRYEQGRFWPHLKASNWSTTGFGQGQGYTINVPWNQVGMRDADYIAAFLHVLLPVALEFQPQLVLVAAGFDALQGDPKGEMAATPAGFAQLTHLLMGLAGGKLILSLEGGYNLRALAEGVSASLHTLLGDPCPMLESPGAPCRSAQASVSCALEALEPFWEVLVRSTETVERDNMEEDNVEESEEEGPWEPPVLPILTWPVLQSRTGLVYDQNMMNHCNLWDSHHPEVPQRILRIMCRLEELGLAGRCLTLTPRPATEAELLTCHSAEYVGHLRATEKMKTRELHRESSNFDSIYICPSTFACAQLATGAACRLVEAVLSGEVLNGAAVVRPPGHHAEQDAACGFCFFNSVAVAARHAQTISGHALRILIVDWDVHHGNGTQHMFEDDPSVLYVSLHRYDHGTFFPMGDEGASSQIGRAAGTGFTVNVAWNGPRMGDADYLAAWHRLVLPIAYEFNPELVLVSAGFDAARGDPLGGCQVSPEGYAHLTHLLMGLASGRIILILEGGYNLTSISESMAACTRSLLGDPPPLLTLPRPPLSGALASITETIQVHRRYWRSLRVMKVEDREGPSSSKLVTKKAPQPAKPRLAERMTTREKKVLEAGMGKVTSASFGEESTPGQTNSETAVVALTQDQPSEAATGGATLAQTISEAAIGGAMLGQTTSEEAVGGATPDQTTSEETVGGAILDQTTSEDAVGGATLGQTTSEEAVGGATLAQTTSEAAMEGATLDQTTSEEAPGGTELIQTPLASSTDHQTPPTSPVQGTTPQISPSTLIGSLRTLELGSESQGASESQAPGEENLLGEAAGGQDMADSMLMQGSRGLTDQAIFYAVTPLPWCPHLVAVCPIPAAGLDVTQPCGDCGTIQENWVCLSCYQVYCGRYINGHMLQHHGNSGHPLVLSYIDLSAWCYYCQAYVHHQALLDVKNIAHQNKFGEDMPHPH
Nature of the assay: Caliper endpoint assay for HDAC enzymatic activity (HDAC6). In kind it is biochemical. The conditions noted are these: for IC50: in vitro enzymatic, Caliper endpoint assay, 30 min pre-incubation, 1 μM substrate peptide; for Selectivity (6 v 8): ratio of HDAC8 IC50/HDAC6 IC50.

The values that follow come from patent publication US12655106B2 (Eikonizo Therapeutics, Inc., priority 2021, dated 2026).

Usually IC50 stands for the concentration that gives 50% inhibition. A low value points to higher potency.

As to `O=C(NO)c1cc(F)c2c(c1)CCN([C@H]1C[C@@]3(CCCN(C4CC4)C3)C1)C2` (single isomer, unassigned) [Compound 346, 2-((2s,4r)-6-cyclopropyl-6-azaspiro[3.5]nonan-2-yl)-8-fluoro-N-hydroxy-1,2,3,4-tetrahydroisoquinoline-6-carboxamide], the IC50 fell in the range of 1 to 10 µM against Full length Human HDAC8 and 1 to 100 nM on Full length Human HDAC6. Further, the “Selectivity (6 v 8)” value at Full length Human HDAC6 was “IV (IV: >100-1000)”.
Turning to `CC[C@@H]1Cc2c(F)cc(C(=O)NO)cc2CN1CC12CC3CC(CC(C3)C1)C2` (single isomer, unassigned) [Compound 507], the IC50 against Full length Human HDAC8 was in the range of 1 to 10 µM. At Full length Human HDAC6, the IC50 was in the range of 100 to 1000 nM and the “Selectivity (6 v 8)” value was “III (III: >10-100)”.
The like results for `O=C(NO)c1cc(F)c(CN2C3CCC2CC(=NO)C3)cc1F` [Compound 54] were, in that order, 0.1 to 1 µM, 1 to 100 nM and “III (III: >10-100)”.
Consider `O=C(NO)c1cc(F)c2c(c1)C[C@H]1CC3(CCCCC3)CN1C2` (single isomer, unassigned) [Compound 135], for which the IC50 at Full length Human HDAC8 was 1 to 10 µM; against Full length Human HDAC6 it was 100 to 1000 nM.
With `CC(=O)N1CC[C@H](N2CCc3cc(C(=O)NO)cc(F)c3C2)CC12CCC2` (single isomer, unassigned) [Compound 441], the IC50 on Full length Human HDAC8 lay in the range of 1 to 10 µM. Further, on Full length Human HDAC6, the IC50 lay in the range of 1 to 100 nM and the “Selectivity (6 v 8)” value was “IV (IV: >100-1000)”.
For `CC[C@@H]1Cc2c(F)cc(C(=O)NO)cc2CN1C[C@H]1C[C@H]2CC[C@@H](C1)N2C` (single isomer, unassigned) [Compound 572] the same measures were 1 to 10 µM, 1 to 100 nM and “III (III: >10-100)”.
The like results for `O=C(NO)c1cc(F)c2c(c1)CCN([C@@H]1CCC3(CCC3)C1)C2` (single isomer, unassigned) [Compound 384] were, in that order, 10 to 100 µM, 1 to 100 nM and “V (V: >1000)”.
Molecule `O=C(NO)c1ccc2c(c1)CCN1CCCC[C@H]21` [Compound 90] returned an IC50 at Full length Human HDAC8 of 1 to 10 µM. In addition, at Full length Human HDAC6, the IC50 was in the range of 1000 to 10000 nM and the “Selectivity (6 v 8)” value is on record as “II (II: >1-10)”.
For the molecule `O=C(NO)c1cc(F)c2c(c1)CCN([C@H]1CCC3(CCC3)C1)C2` (single isomer, unassigned) [Compound 383], the IC50 against Full length Human HDAC8 lay in the range of 10 to 100 µM. On Full length Human HDAC6, the IC50 lay within 1 to 100 nM and the “Selectivity (6 v 8)” value is listed as “V (V: >1000)”.
Take `CC[C@@H]1Cc2c(F)cc(C(=O)NO)cc2CN1CC1COC1` (single isomer, unassigned) [Compound 217]: the IC50 was 10 to 100 µM on Full length Human HDAC8 and 1 to 100 nM against Full length Human HDAC6. Further, the “Selectivity (6 v 8)” value on Full length Human HDAC6 was “IV (IV: >100-1000)”.
Turning to `O=C(NO)c1cc(F)c2c(c1)CCN(C1CCC3(CCNCC3)C1)C2` (centres unmarked) [Compound 416, 8-fluoro-N-hydroxy-2-(8-azaspiro[4.5]decan-2-yl)-1,2,3,4-tetrahydroisoquinoline-6-carboxamide], the IC50 against Full length Human HDAC8 was 10 to 100 µM. At Full length Human HDAC6, the IC50 is 1 to 100 nM and the “Selectivity (6 v 8)” value is “IV (IV: >100-1000)”.
`O=C(NO)c1cc(F)c2c(c1)CCN(C1CCC3(CC1)CN(Cc1ccccc1)C3)C2` [Compound 430, 2-(2-benzyl-2-azaspiro[3.5]nonan-7-yl)-8-fluoro-3,4-dihydro-1H-isoquinoline-6-carbohydroxamic acid] had an IC50 against Full length Human HDAC8 of 1 to 10 µM. For the same molecule, on Full length Human HDAC6, the IC50 lay within 1 to 100 nM and the “Selectivity (6 v 8)” value is given as “IV (IV: >100-1000)”.
Molecule `CN1CC2(CCC2N2CCc3cc(C(=O)NO)cc(F)c3C2)C1` (centres unmarked) [Compound 302, 8-fluoro-2-(2-methyl-2-azaspiro[3.3]heptan-7-yl)-3,4-dihydro-1H-isoquinoline-6-carbohydroxamic acid] showed an IC50 against Full length Human HDAC8 of 1 to 10 µM. For the same molecule, on Full length Human HDAC6, the half-inhibitory concentration (IC50) fell in the range of 1 to 100 nM and the “Selectivity (6 v 8)” value was “IV (IV: >100-1000)”.
As for `CN1CC2CC(C1)C2CN1CCc2cc(C(=O)NO)cc(F)c2C1` (centres unmarked) [Compound 463, 8-fluoro-2-[(3-methyl-3-azabicyclo[3.1.1]heptan-6-yl)methyl]-3,4-dihydro-1H-isoquinoline-6-carbohydroxamic acid], at Full length Human HDAC8, the concentration for half-maximal inhibition (IC50) is 10 to 100 µM. For the same molecule, at Full length Human HDAC6, the concentration for half-maximal inhibition (IC50) was 1 to 100 nM and the “Selectivity (6 v 8)” value is listed as “IV (IV: >100-1000)”.
Take `C[C@H]1CC[C@@H]2c3c(F)cc(C(=O)NO)cc3CCN21` (single isomer, unassigned) [Compound 159]: the figures for the IC50 on Full length Human HDAC8 and against Full length Human HDAC6 were 1 to 10 µM and 100 to 1000 nM, respectively.
`O=C(NO)c1cc(F)c2c(c1)CCN(C1CC3(CCOC3)C1)C2` (single isomer, unassigned) [Compound 189, 8-fluoro-N-hydroxy-2-(6-oxaspiro[3.4]octan-2-yl)-1,2,3,4-tetrahydroisoquinoline-6-carboxamide] yielded an IC50 at Full length Human HDAC8 of 10 to 100 µM. On Full length Human HDAC6, the half-inhibitory concentration (IC50) was 1 to 100 nM and the “Selectivity (6 v 8)” value was “IV (IV: >100-1000)”.
At Full length Human HDAC8, `CC[C@@H]1Cc2c(F)cc(C(=O)NO)cc2CN1CC12CC3CC(CC(C3)O1)C2` (single isomer, unassigned) [Compound 509] had an IC50 of 1 to 10 µM. Besides, at Full length Human HDAC6, the IC50 was in the range of 1 to 100 nM and the “Selectivity (6 v 8)” value is given as “III (III: >10-100)”.
Turning to `CN1CC[C@@]2(CC[C@H]2N2CCc3cc(C(=O)NO)cc(F)c3C2)C1` (single isomer, unassigned) [Compound 331], at Full length Human HDAC8, the IC50 lay within 10 to 100 µM. For the same molecule, on Full length Human HDAC6, the IC50 lay within 1 to 100 nM and the “Selectivity (6 v 8)” value is given as “IV (IV: >100-1000)”.
For `CC[C@@H]1Cc2c(F)cc(C(=O)NO)cc2CN1C[C@H]1CCCCO1` (single isomer, unassigned) [Compound 230] the same measures were 1 to 10 µM, 1 to 100 nM and “III (III: >10-100)”.
For the molecule `CN1Cc2cc(C(=O)NO)ccc2[C@H]2CCCN21` (single isomer, unassigned) [Compound 161], the IC50 against Full length Human HDAC8 fell in the range of 1 to 10 µM; against Full length Human HDAC6, 100 to 1000 nM.
`O=C(NO)c1cc(F)c2c(c1)C[C@@H]1CC3(CCCCC3)CN1C2` (single isomer, unassigned) [Compound 136]: the IC50 lay within 1 to 10 µM against Full length Human HDAC8 and 1 to 100 nM at Full length Human HDAC6.
Take `NC12CC(CN3CCc4cc(C(=O)NO)cc(F)c4C3)(C1)C2` [Compound 486, 2-[(3-amino-1-bicyclo[1.1.1]pentanyl)methyl]-8-fluoro-3,4-dihydro-1H-isoquinoline-6-carbohydroxamic acid]: the 50% inhibitory concentration (IC50) at Full length Human HDAC8 was 10 to 100 µM; at Full length Human HDAC6, 1 to 100 nM. Further, the “Selectivity (6 v 8)” value on Full length Human HDAC6 is reported as “IV (IV: >100-1000)”.
In turn, `CN1CC2(C[C@@H](N3CCc4cc(C(=O)NO)cc(F)c4C3)CCO2)C1` (single isomer, unassigned) [Compound 451] showed an IC50 at Full length Human HDAC8 of 1 to 10 µM. At Full length Human HDAC6, the IC50 fell in the range of 1 to 100 nM and the “Selectivity (6 v 8)” value is “IV (IV: >100-1000)”.
For the molecule `O=C(NO)c1cc(F)c2c(c1)CCN(C1CCC3(CCC3)CC1)C2` [Compound 192, 8-fluoro-2-spiro[3.5]nonan-7-yl-3,4-dihydro-1H-isoquinoline-6-carbohydroxamic acid], at Full length Human HDAC8, the IC50 lay in the range of 10 to 100 µM. Besides, at Full length Human HDAC6, the IC50 lay within 1 to 100 nM and the “Selectivity (6 v 8)” value is “V (V: >1000)”.
For `O=C(NO)c1cc(F)c2c(c1)CCN([C@H]1C[C@]3(CCCNC3)C1)C2` (single isomer, unassigned) [Compound 341, 8-fluoro-N-hydroxy-2-((2r,4s)-6-azaspiro[3.5]nonan-2-yl)-1,2,3,4-tetrahydroisoquinoline-6-carboxamide], the IC50 against Full length Human HDAC8 fell in the range of 10 to 100 µM; against Full length Human HDAC6 it was 1 to 100 nM. Also, the “Selectivity (6 v 8)” value at Full length Human HDAC6 is recorded as “IV (IV: >100-1000)”.
